Data: patent publication US20240247235A1, “niPSCs DERIVED FROM SOMATIC CELLS” (UNIVERSITA' DEGLI STUDI DI PADOVA, priority 2018, published 2024)

Experiments:
[1] = tested on: Human fibroblasts; test: mmRNA (OSKMN) reprogramming of fibroblasts to naïve-like iPSC colonies in microfluidics; assay type: cell-based
Experimental: Microfluidic channels were coated with 25 μg/ml fibronectin (Sigma Aldrich) for 30 min at room temperature. Somatic cells were seeded on day −1 of reprogramming at 25 cells/mm^2 for feeder-free reprogramming in DMEM/10% FBS. Such seeding density allowed robust proliferation and survival of somatic cells during reprogramming. On day 0, 2 hours before the first mmRNA transfection, the medium was changed to PRM, a medium optimized from mRNA transfection and previously used for derivation of primed PSCs (StemMACS ReproBREW XF, Miltenyi biotec). When indicated, 1 μM CH, 1 μM CH and 5 μM Ri were added to PRM. Transfection period is of 9 h. Cells were transfected daily at 9 am, and fresh PRM was given daily at 6 pm. On day 6, medium was changed with a naïve supporting medium according to table 1 and the same regime of transfection and fresh medium change was maintained until day 12. From day 0 to 12, media were supplemented with 200 ng/mL^−1 B18R (eBioscience). Transfections using a OSKMN+nGFP mmRNA mix (POU5F1, SOX2, KLF4, c-MYC, NANOG, nuclear GFP) were started on day 0 and daily repeated for 12 d. […]
Freshly-derived colonies were then cultured for 3 days without mmRNAs (day 15) to allow their complete clearance, and analyzed in situ for naïve or primed associated markers. […] Success rate, measured as the percentage of microfluidic channels containing naïve-like colonies, was evaluated (FIG. 3c). […]

[2] = tested on: primed iPS cells; test: Expansion of mixed primed- and naïve-like colonies generated in CCC with FGF receptor inhibitor; assay type: cell-based, human; details: expanded with inhibitor
Experimental: Side-by-side experiments comparing μF and CCC were performed. Generation of niPSCs in μF was robust (100% of channels contained colonies, with an efficiency of 3.7%+1.0 and 3.1%+0.4 from BJ and HFF-1, respectively, FIG. 9a). Conversely, in CCC only 25% of wells contained naïve-like colonies, with efficiency of 0.2% and 0.04%.

Cc1c[nH]c(-c2cnc(NCCNc3ccc(C#N)cn3)nc2-c2ccc(Cl)cc2Cl)n1 [CH, CHIR99021]
Formed naïve-like colonies, inhibitor added to PRM during the first 6 days ([1]; PRM + 1 μM CHIR99021 days 0-6, then 2LiGo+KSR, compared with other inhibitor combinations (FIG. 3b)): Best results in term of formed colonies

C[C@@H](N)[C@H]1CC[C@H](C(=O)Nc2ccncc2)CC1 [ROCK inhibitor, Y27632]
Effect on colony formation efficiency ([1]; added to reprogramming in 2iLGo+KSR, OSKMN mmRNA, microfluidics (FIG. 3c-e)): increased colony formation efficiency

CCN(CC)CCCCNc1ncc2cc(-c3cc(OC)cc(OC)c3)c(NC(=O)NC(C)(C)C)nc2n1 [PD173074]
Effect on primed iPS cells in mixed primed/naïve culture [2]: primed iPS cells were eliminated
